Assay results published in paper doi:10.1101/2023.05.15.540887, “Comparative analysis of drug-like EP300/CREBBP acetyltransferase inhibitors” (bioRxiv, 2023).
pIC50: −log10 of the molar value. Where two headings read alike, the source gives them in different places.

Tests used:
M14 = assay: cells; settings: Homo sapiens
HS578T = assay: NCI-60 growth inhibition (sulforhodamine B); assay type: cell-based; settings: Homo sapiens
786-0 = assay: NCI-60 growth inhibition (sulforhodamine B); assay type: cell-based; settings: Homo sapiens, 786-0, Renal Cancer, negative log of Molar value, LCONC -8, EXPID 2301NS84
MDA-MB-435 = assay: NCI-60 growth inhibition (sulforhodamine B); assay type: cell-based, human; settings: MDA-MB-435 (Melanoma), negative log of Molar conc., LCONC -8
UACC-257 = assay: NCI-60 growth inhibition (sulforhodamine B); assay type: cell-based, human; settings: UACC-257 (Melanoma), negative log of Molar conc., LCONC -8
HL-60(TB) = assay: NCI-60 growth inhibition (sulforhodamine B); assay type: cell-based, human; settings: HL-60(TB) (Leukemia), negative log of Molar conc., LCONC -8
[1] = tested on: histone H3 acetylation in MCF-10A cells (PANK4 KO+WT, KO+EV); assay: Western blot of H3K18Ac and H3K23Ac in MCF-10A PANK4 KO+WT and KO+EV cells; assay type: cell-based, human; settings: 3 h, 1 at micromolar and 3 at nanomolar concentrations
Description: Recently, we reported the discovery of a phosphorylation-dependent signaling cascade that can upregulate CoA biosynthesis in human cells by inhibiting the activity of PANK4, a negative regulator of this pathway (Fig. 4a).[34] This occurs via PANK4’s ability to reverse the rate-limiting step in CoA production, which is phosphorylation of pantothenate (vitamin B5) by PANK1–3.[35] […] Considering how to resolve these mechanisms, we wondered if this may be an area where knowledge of the comparative pharmacology of EP300/CREBBP inhibitors could be usefully leveraged. Specifically, we hypothesized that if PANK4 inactivation (knockout; KO) led to a resistance mechanism dependent on EP300/CREBBP active site occupancy (e.g. competitive binding), then the differential potency of 1 and 3 would be preserved – albeit over a shifted concentration range – in the resistant PANK4 KO cell line (Fig. 4b). […] To correlate these observations with the effect of the compounds on cellular acetyltransferase activity, we monitored histone H3 acetylation at an EP300/CREBBP-dependent site (H3K18Ac) and EP300/CREBBP-independent site (H3K23Ac). […]
Histone samples were quantified using the Precision Red Protein Assay (Cytoskeleton #ADV02). […]

A498 = assay: NCI-60 growth inhibition (sulforhodamine B); assay type: cell-based; settings: Homo sapiens, A498, Renal Cancer, negative log of Molar value, LCONC -8, EXPID 2301NS84
KM12 = assay: NCI-60 growth inhibition (sulforhodamine B); assay type: cell-based, human; settings: KM12 (Colon Cancer), negative log of Molar conc., LCONC -8
[2] = read-out: GI50 NLOGVALUE (converted)
[3] = Homo sapiens, read-out: GI50 NLOGVALUE (converted)
[4] = Homo sapiens, read-out: IC50 NLOGVALUE (converted)
[5] = Homo sapiens, read-out: LC50 NLOGVALUE

With `C[C@H](CN[C@@H](C(=O)Nc1ccc(-c2cnn(C)c2)cn1)c1ccccc1)c1ccc(C#N)cc1` [CPI-1612] the GI50 (M14; M14, read-out: GI50 NLOGVALUE) was 0.0214 µM, the pIC50 (M14; M14, read-out: IC50 NLOGVALUE) was 4.35 and the CC50 (M14; M14, read-out: LC50 NLOGVALUE) was > 100 µM. For the same molecule, the GI50 (HS578T; Hs-578T, read-out: GI50 AVGDATA (converted)) was 0.0138 µM, the GI50 (HS578T; HS 578T, Breast Cancer, negative log of Molar value, LCONC -8, EXPID 2301NS84, read-out: GI50 NLOGVALUE (converted)) was 0.0141 µM and the pIC50 (HS578T; HS 578T, Breast Cancer, negative log of Molar value, LCONC -8, EXPID 2301NS84, read-out: IC50 NLOGVALUE) was < 4.00. The CC50 (HS578T; HS 578T, Breast Cancer, negative log of Molar value, LCONC -8, EXPID 2301NS84, read-out: LC50 NLOGVALUE) was > 100 µM, the GI50 (786-0; [2]) was 55 µM and the pIC50 (786-0; read-out: IC50 NLOGVALUE) was < 4.00. For the same molecule, the CC50 (786-0; read-out: LC50 NLOGVALUE) was > 100 µM, the GI50 (MDA-MB-435; [3]) was 0.0479 µM and the IC50 (MDA-MB-435; [4]) was 50.1 µM. The CC50 (MDA-MB-435; [5]) was > 100 µM, the “TGI NLOGVALUE” (MDA-MB-435) was 4 and the pIC50 (UACC-257; Homo sapiens, read-out: IC50 NLOGVALUE) was < 4.00. The CC50 (UACC-257; [5]) was > 100 µM, the “TGI NLOGVALUE” (UACC-257) was 4 and the “TGI NLOGVALUE” (HL-60(TB)) was 4.6. For the same molecule, the GI50 (HL-60(TB); [3]) was 0.0132 µM, the IC50 (HL-60(TB); [4]) was 15.5 µM and the CC50 (HL-60(TB); [5]) was > 100 µM. The “effect on H3K18Ac, PANK4 KO+EV versus KO+WT” value [1] was “PANK4 KO lessening the effects”, the GI50 (A498; [2]) was 0.0295 µM and the pIC50 (A498; read-out: IC50 NLOGVALUE) was < 4.00. The CC50 (A498; read-out: LC50 NLOGVALUE) was > 100 µM, the GI50 (KM12; [3]) was 0.204 µM and the IC50 (KM12; [4]) was 3.24 µM. For the same molecule, the CC50 (KM12; [5]) was > 100 µM and the “TGI NLOGVALUE” (KM12) was 4.
